Three molecules from patent US20050090397A1, “Herbicides made from substituted aryl ketones” (priority 2001, published 2005) can be followed below.

The structures appear in SMILES notation.

Holding throughout (assay type): in vivo
The test system of data set [1] is DOPJU. As to the kind of experiment: Herbicidal damage to weed DOPJU (Table B2). The note with it: application rate 50 g/ha. From the text: (§1) To produce a preparation of active compound, 1 part by weight of an active compound combination according to the invention is mixed with the stated amount of solvent and, after addition of the stated amount of the emulsifier, diluted with water to the desired concentration.
(§2) Vessels for planting (500 cm^2) are filled with soil from a rice field, and in each case 3 rice plants (cultivar: Nipponbare, 2-3-leaf stage, height: about 15 cm) are planted into the middle of vessels for planting. Into the same vessels for planting, seeds are sown. The soil in the vessels is kept moist. After two days, each vessel for planting is flooded to a water depth of 2-3 cm.
(§3) Five days after the rice plants were transplanted, the amount of active compound is, in the preparation described above, applied to the surface of the water in the vessels for planting using a pipette. The water depth in the vessels for planting is maintained at 2-3 cm.
(§4) 3 weeks after the application of active compound, the efficacy is rated in % damage in comparison to the untreated control.
(§5) Active compounds, application rates and results are shown in Table A1 below, the abbreviations used in the table having the following meanings: • (I-65) N-[2,6-dichloro-3-[2,6-dioxocyclohexyl)-carbonyl]-phenyl]pyrrolidone-1-carboxamide • (I-2) N′-[2,6-dichloro-3-[(2,6-dioxo-cyclohexyl)-carbonyl]-phenyl]-N-methoxy-N-methyl-urea • (A) fentrazamide

For data set [2], the system named is Lindernia pyxidari. As to the kind of experiment: Greenhouse test in transplanted paddy rice: herbicidal damage to weed. The note with it: applied to water surface, rated 3 weeks after application vs untreated control.
Description: as §1, §2, §3, §4, §5

Data set [3] relates to rice plants (cultivar: Nipponbare). Kind of data set: Greenhouse test in transplanted paddy rice: crop damage. The note with it: rated 3 weeks after application.
Description: as §1, §2, §3, §4, §5

The test system of data set [4] is ROT/N. As to the kind of experiment: Herbicidal damage to weed ROT/N (Tables B1, B3). The note with it: application rate 50 g/ha.

On to `CCN(C(=O)n1nnn(-c2ccccc2Cl)c1=O)C1CCCCC1` [(A), 4-(2-chloro-phenyl)-N-cyclohexyl-N-ethyl-4,5-dihydro-5-oxo-1H-tetrazol-1-carboxamide], for which the “Damage (to DOPJU) (%)” value in data set [1] came to 50%. The “Damage to Lindernia pyxidari (%)” value in data set [2] (application rate 150 g/ha) turned out to be 70%. The “Damage to rice (%)” value in data set [3] (application rate 150 g/ha) was 0%. Further, the “Damage (to ROT/N) (%)” value in data set [4] (Table B1) worked out at 60%.
For `CCC1(CC2(c3cccc(Cl)c3)CO2)C(=O)c2ccccc2C1=O` (stereo not shown) [B, 2-[2-(3-chloro-phenyl)-oxiranyl-methyl]-2-ethyl-1H-indene-1,3 (2H)-dione], in data set [4] (Table B3), the “Damage (to ROT/N) (%)” value is on record as 2%.
As to `CON(C)C(=O)Nc1c(Cl)ccc(C(=O)C2C(=O)CCCC2=O)c1Cl` [Example I-2, N′-[2,6-dichloro-3-[(2,6-dioxo-cyclohexyl)-carbonyl]-phenyl]-N-methoxy-N-methyl-urea], the “Damage to Lindernia pyxidari (%)” value in data set [2] (application rate 200 g/ha) came to 60%. Besides, the “Damage to rice (%)” value in data set [3] (application rate 200 g/ha) worked out at 0%.
